Data as given in publication PMC5642509, “A small-molecule inhibitor targeting the AURKC–IκBα interaction decreases transformed growth of MDA-MB-231 breast cancer cells” (Oncotarget, 2017).

T1: Aurora C (AURKC) (Homo sapiens, UniProt Q9UQB9)
T1 construct: recombinant active AURKC
T1 sequence (Q9UQB9 1-309): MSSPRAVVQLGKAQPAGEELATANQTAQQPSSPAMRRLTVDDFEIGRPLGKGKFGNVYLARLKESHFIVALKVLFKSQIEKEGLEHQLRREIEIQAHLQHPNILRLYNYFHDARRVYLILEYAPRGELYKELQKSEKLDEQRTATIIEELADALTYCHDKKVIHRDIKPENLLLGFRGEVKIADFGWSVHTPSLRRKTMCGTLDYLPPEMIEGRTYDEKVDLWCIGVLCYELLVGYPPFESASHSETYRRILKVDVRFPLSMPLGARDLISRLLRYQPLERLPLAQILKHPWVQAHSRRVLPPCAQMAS

T2: pBIND-AURKC (human, UniProt Q9UQB9 1-309)
T2 construct: Aurora C kinase (AURKC); also called pM-BD-pAURKC; source: mammalian two-hybrid fusion, transfected cells
T2 sequence (looked up): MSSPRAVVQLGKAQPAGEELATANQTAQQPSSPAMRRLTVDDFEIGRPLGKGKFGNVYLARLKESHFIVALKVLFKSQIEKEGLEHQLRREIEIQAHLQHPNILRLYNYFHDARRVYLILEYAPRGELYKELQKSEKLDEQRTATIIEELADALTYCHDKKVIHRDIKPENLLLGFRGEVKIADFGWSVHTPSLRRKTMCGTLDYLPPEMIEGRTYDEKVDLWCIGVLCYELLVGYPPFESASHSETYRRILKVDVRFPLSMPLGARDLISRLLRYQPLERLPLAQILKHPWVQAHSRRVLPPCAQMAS


How the values were obtained:
Aurora C (AURKC) = target: T1, Aurora C (AURKC); experiment: ATP-competition kinase assay, active AURKC and purified IκBα, pS32 immunoblot (GSK1070916 […], various ATP); assay type: biochemical
pBIND-AURKC = target: T2, pBIND-AURKC; experiment: two-hybrid; mammalian two-hybrid: pBIND-AURKC, pACT-IκBα and pG5-luciferase transfected in equal amounts; luciferase read-out normalised against the control; settings: partners not purified

| fold luciferase activity over the Bind-AURKC vector (pBIND-AURKC) [fold] | Molecule | ATP-competition kinase assay, active AURKC and purified IκBα, pS32 immunoblot (G) (Aurora C (AURKC)) |
| --- | --- | --- |
|  | CCn1cc(-c2ccnc3[nH]c(-c4cccc(CN(C)C)c4)cc23)c(-c2ccc(NC(=O)N(C)C)cc2)n1 [GSK1070916] | the inhibitory activity of GSK1070916 was inversely proportional to the concentration of ATP (Figure 6E and 6F) |
| ~2.7 | pACT-IκBα (natural protein, human, UniProt P25963 1-317, looked up, IκBα; also called pVP-IκBα; source: mammalian two-hybrid fusion, transfected cells) MFQAAERPQEWAMEGPRDGLKKERLLDDRHDSGLDSMKDEEYEQMVKELQEIRLEPQEVPRGSEPWKQQLTEDGDSFLHLAIIHEEKALTMEVIRQVKGDLAFLNFQNNLQQTPLHLAVITNQPEIAEALLGAGCDPELRDFRGNTPLHLACEQGCLASVGVLTQSCTTPHLHSILKATNYNGHTCLHLASIHGYLGIVELLVSLGADVNAQEPCNGRTALHLAVDLQNPDLVSLLLKCGADVNRVTYQGYSPYQLTWGRPSTRIQQQLGQLTLENLQMLPESEDEESYDTESEFTEFTEDELPYDDCVFGGQRLTL |  |
